Laboratory results taken from patent US10376499B2, “Combination therapy for treatment of resistant bacterial infections” (priority 2014, dated 2019).
Converted amounts (≈) assume the structure as drawn.

Experiments:
[1] = test system: Enterobacter cloacae; assay: MIC, recent Enterobacteriaceae clinical isolates: Enterobacter cloacae (Examples 7, 11); format: cell-based
[2] = test system: Citrobacter spp; assay: MIC, recent Enterobacteriaceae clinical isolates: Citrobacter spp (Examples 7, 11); format: cell-based
[3] = test system: Enterobacteriaceae; assay: organism not typed; format: cell-based
[4] = test system: A. baumannii; assay: MIC, 20 diverse recent strains of A. baumannii (Example 10); format: cell-based, Acinetobacter baumannii; conditions: N 20 A. baumannii strains
[5] = test system: A. baumannii; assay: Neutropenic mouse thigh and lung infection models; conditions: neutropenic CD-1 mice, subcutaneous q3h, sulbactam+compound 1 at 4:1 ratio, 24 h, isolate containing AmpC, OXA-66, OXA-72, TEM-1, FIG. 4
[6] = test system: Escherichia coli; assay: MIC, recent Enterobacteriaceae clinical isolates: Escherichia coli (Examples 7, 11)
[7] = test system: Klebsiella pneumoniae; assay: MIC, recent Enterobacteriaceae clinical isolates: Klebsiella pneumoniae (Examples 7, 11)
[8] = test system: A. baumannii; assay: MIC by broth microdilution (CLSI), panel of 60 A. baumannii clinical isolates (Example 1); conditions: Acinetobacter baumannii
[9] = test system: A. baumannii; assay: MIC90 of common antibiotics+compound 1, 196 contemporary clinical isolates of A. baumannii (Example 4); conditions: B-lactam + Cmpd 1 (4 μg/mL)

SMILES: CC1(C)[C@H](C(=O)O)N2C(=O)C[C@H]2S1(=O)=O [Sulbactam, (2S,5R)-3,3-dimethyl-7-oxo-4-thia-1-azabicyclo[3.2.0]heptane-2-carboxylic acid 4,4-dioxide]
- MIC50 [1]: 64 mg/L (≈ 274 µM)
- MIC ([1]; Enterobacter cloacae ARC4438, AmpC+): 128 mg/L (≈ 549 µM)
- MIC ([1]; Enterobacter cloacae ARC4444, AmpC+, MIR-8[I175L]): 64 mg/L (≈ 274 µM)
- MIC ([1]; Enterobacter cloacae ARC4458, AmpC+, ACT-2[V312M]): 64 mg/L (≈ 274 µM)
- MIC ([1]; Enterobacter cloacae ARC4473, SHV-5+, AmpC+, DHA-1+, TEM-1+): 128 mg/L (≈ 549 µM)
- MIC ([1]; Enterobacter cloacae ARC4489, AmpC+): 128 mg/L (≈ 549 µM)
- MIC ([1]; Enterobacter cloacae ARC4492, AmpC+): 256 mg/L (≈ 1100 µM)
- MIC90 ([1]; N 10): 128 mg/L (≈ 549 µM)
- MIC range ([1]; N 10): 64 to 256 mg/L
- MIC50 ([2]; Citrobacter): 256 mg/L (≈ 1100 µM)
- MIC90 ([2]; Citrobacter): > 256 mg/L
- MIC ([2]; Citrobacter braakii ARC3660, CTX-M-15): 32 mg/L (≈ 137 µM)
- MIC ([2]; Citrobacter freundii ARC3522, AmpC, TEM-1, CMY65): > 256 mg/L
- MIC ([2]; Citrobacter freundii ARC3883, KPC-2): 256 mg/L (≈ 1100 µM)
- MIC ([2]; Citrobacter freundii ARC3884, KPC-2): 256 mg/L (≈ 1100 µM)
- MIC ([2]; Citrobacter freundii ARC3885, AmpH, TEM-1, SHV-5, CMY-6, CMY-13): 256 mg/L (≈ 1100 µM)
- MIC ([2]; Citrobacter koseri ARC2001, ESBL): 64 mg/L (≈ 274 µM)
- MIC ([2]; Citrobacter koseri ARC2002, ESBL): 64 mg/L (≈ 274 µM)
- MIC50 [3]: 64 mg/L (≈ 274 µM)
- MIC90 [3]: 256 mg/L (≈ 1100 µM)
- MIC50 [4]: 16 mg/L (≈ 68.6 µM)
- MIC90 [4]: 64 mg/L (≈ 274 µM)
- MIC Max [4]: > 64 mg/L
- MIC Min [4]: 2 mg/L (≈ 8.57 µM)
- efficacy (mean delta log CFU) [5]: failed to show efficacy
- MIC ([6]; Escherichia coli): 128 mg/L (≈ 549 µM)
- MIC50 ([6]; Escherichia coli): 64 mg/L (≈ 274 µM)
- MIC90 ([6]; Escherichia coli): 64 mg/L (≈ 274 µM)
- MIC ([6]; Escherichia coli ARC4471, CMY-2+, OXA-1+, TEM-1+): 128 mg/L (≈ 549 µM)
- MIC ([6]; Escherichia coli, ATCC25922, Escherichia coli ARC4, none (ATCC 25922) CLSI control): 64 mg/L (≈ 274 µM)
- MIC ([6]; Escherichia coli, Escherichia coli ARC4416, CTX-M-14+, TEM-1+): 32 mg/L (≈ 137 µM)
- MIC ([6]; Escherichia coli, Escherichia coli ARC4418, CTX-M-14+, CMY-2+): 32 mg/L (≈ 137 µM)
- MIC ([6]; Escherichia coli, Escherichia coli ARC4419, SHV-12+): 32 mg/L (≈ 137 µM)
- MIC ([6]; Escherichia coli, Escherichia coli ARC4421, CTX-M-55, TEM-1+, CMY-2+): 64 mg/L (≈ 274 µM)
- MIC ([6]; Escherichia coli, Escherichia coli ARC4426, TEM-1+, CMY-2+): 32 mg/L (≈ 137 µM)
- MIC ([6]; Escherichia coli, Escherichia coli ARC4429, TEM-1+, CMY-2+): 64 mg/L (≈ 274 µM)
- MIC ([6]; Escherichia coli, Escherichia coli ARC4436, CTX-M-14+, TEM-1+): 32 mg/L (≈ 137 µM)
- MIC ([6]; Escherichia coli, Escherichia coli ARC4449, CMY-2+, TEM-1+): 64 mg/L (≈ 274 µM)
- MIC ([6]; Escherichia coli, Escherichia coli ARC4450, TEM-1+, OXA-1+, CMY-2+): 64 mg/L (≈ 274 µM)
- MIC ([6]; Escherichia coli, Escherichia coli ARC4452, SHV-12+): 32 mg/L (≈ 137 µM)
- MIC ([6]; Escherichia coli, Escherichia coli ARC4455, SHV-12+): 32 mg/L (≈ 137 µM)
- MIC ([6]; Escherichia coli, Escherichia coli ARC4465, CMY-2+): 32 mg/L (≈ 137 µM)
- MIC ([6]; Escherichia coli, Escherichia coli ARC4472, CMY-2+, TEM-1+): 64 mg/L (≈ 274 µM)
- MIC ([6]; Escherichia coli, Escherichia coli ARC4477, CTX-M-15+, TEM-1+): 32 mg/L (≈ 137 µM)
- MIC ([6]; Escherichia coli, Escherichia coli ARC4478, CTX-M-15+, CMY-2+): 32 mg/L (≈ 137 µM)
- MIC ([6]; Escherichia coli, Escherichia coli ARC4479, CMY-42+, OXA-1+, OXA-9+, TEM-1+): 64 mg/L (≈ 274 µM)
- MIC ([6]; Escherichia coli, Escherichia coli ARC4485, CMY-2+, OXA-1+, CTX-M-15+): 64 mg/L (≈ 274 µM)
- MIC ([6]; Escherichia coli, Escherichia coli ARC4487, SHV-5+, DHA-1+, TEM-1+, OXA-1+, CMY-2+): 64 mg/L (≈ 274 µM)
- MIC50 [7]: 64 mg/L (≈ 274 µM)
- MIC90 [7]: > 256 mg/L
- MIC ([7]; Klebsiella pneumoniae ARC4420, SHV-11, SHV-12, DHA-1, OXA-1): 128 mg/L (≈ 549 µM)
- MIC ([7]; Klebsiella pneumoniae ARC4427, SHV-1, OXA-1): > 256 mg/L
- MIC ([7]; Klebsiella pneumoniae ARC4451, SHV-11, KPC-3): > 256 mg/L
- MIC ([7]; Klebsiella pneumoniae ARC4457, SHV-11, DHA-1): 64 mg/L (≈ 274 µM)
- MIC ([7]; Klebsiella pneumoniae ARC4460, SHV-11, CTX-M15, OXA-1, NDM-1): > 256 mg/L
- MIC ([7]; Klebsiella pneumoniae ARC4467, SHV-33, TEM-1, OXA-1, DHA-1): 64 mg/L (≈ 274 µM)
- MIC ([7]; Klebsiella pneumoniae ARC4468, SHV-1): 64 mg/L (≈ 274 µM)
- MIC ([7]; Klebsiella pneumoniae ARC4476, SHV-11, KPC-2, OXA-9[W117*]): > 256 mg/L
- MIC ([7]; Klebsiella pneumoniae ARC4482, SHV-27[A122V], OXA-1): 32 mg/L (≈ 137 µM)
- MIC ([7]; Klebsiella pneumoniae ARC4486, SHV-11, DHA-1, OXA-1[E69K]): 128 mg/L (≈ 549 µM)
- MIC ([7]; Klebsiella pneumoniae ARC4488, SHV-11, CTX-M15, OXA-1, TEM-1): 64 mg/L (≈ 274 µM)
- MIC ([7]; Klebsiella pneumoniae ARC4490, SHV-11, CTX-M15, KPC-2, OXA-1): 256 mg/L (≈ 1100 µM)
- MIC50 [8]: 16 mg/L (≈ 68.6 µM)
- MIC90 [8]: 32 mg/L (≈ 137 µM)
- MIC ([8]; strain ARC593, OXA-98): 1 mg/L (≈ 4.29 µM)
- MIC ([8]; strain ARC2058, OXA-95): 2 mg/L (≈ 8.57 µM)
- MIC ([8]; strain ARC2461, OXA-66, TEM-1): 16 mg/L (≈ 68.6 µM)
- MIC ([8]; strain ARC2462, TEM-1, OXA-66): 16 mg/L (≈ 68.6 µM)
- MIC ([8]; strain ARC2598, OXA*, TEM-1, OXA-113): 16 mg/L (≈ 68.6 µM)
- MIC ([8]; strain ARC2635, OXA-65, OXA-40, TEM-1): 32 mg/L (≈ 137 µM)
- MIC ([8]; strain ARC2636, OXA-65, OXA-40, TEM-1): 32 mg/L (≈ 137 µM)
- MIC ([8]; strain ARC2675, SHV-5, OXA-113): 16 mg/L (≈ 68.6 µM)
- MIC ([8]; strain ARC2681, OXA-40, TEM-1, OXA-132): 16 mg/L (≈ 68.6 µM)
- MIC ([8]; strain ARC2682, SHV-5, OXA-113): 4 mg/L (≈ 17.1 µM)
- MIC ([8]; strain ARC2778, OXA-40, TEM-1, OXA-65): 16 mg/L (≈ 68.6 µM)
- MIC ([8]; strain ARC2779 (A. baumannii/calcoaceticus complex), OXA-2, VIM-2): 16 mg/L (≈ 68.6 µM)
- MIC ([8]; strain ARC2780 (A. baumannii/calcoaceticus complex), OXA*, OXA-2, IMP-1): 4 mg/L (≈ 17.1 µM)
- MIC ([8]; strain ARC2782, OXA-66, OXA-23, TEM-1, PER-1): 32 mg/L (≈ 137 µM)
- MIC ([8]; strain ARC3484, TEM-1, OXA-23, OXA-64): 16 mg/L (≈ 68.6 µM)
- MIC ([8]; strain ARC3486, OXA-72, OXA-66, TEM-1): 32 mg/L (≈ 137 µM)
- MIC ([8]; strain ARC3487, OXA-20, OXA-58, OXA-66): 4 mg/L (≈ 17.1 µM)
- MIC ([8]; strain ARC3488, OXA*, OXA-68): 16 mg/L (≈ 68.6 µM)
- MIC ([8]; strain ARC3489, OXA*, OXA-68): 2 mg/L (≈ 8.57 µM)
- MIC ([8]; strain ARC3490, TEM-1+, PSE-2, OXA-69): 32 mg/L (≈ 137 µM)
- MIC ([8]; strain ARC3491 (A. baumannii/calcoaceticus complex), OXA-215): 0.5 mg/L (≈ 2.14 µM)
- MIC ([8]; strain ARC3492, OXA-40, OXA-132, TEM-1): 16 mg/L (≈ 68.6 µM)
- MIC ([8]; strain ARC3493, OXA-40, OXA-66): 64 mg/L (≈ 274 µM)
- MIC ([8]; strain ARC3494, OXA-65): 4 mg/L (≈ 17.1 µM)
- MIC ([8]; strain ARC3495, OXA-40, OXA-109): 32 mg/L (≈ 137 µM)
- MIC ([8]; strain ARC3513, TEM-1, OXA-23, OXA-65): 16 mg/L (≈ 68.6 µM)
- MIC ([8]; strain ARC3657, OXA-130): 32 mg/L (≈ 137 µM)
- MIC ([8]; strain ARC3658, OXA-66, PER-1, TEM-1, OXA-23): 32 mg/L (≈ 137 µM)
- MIC ([8]; strain ARC3659, OXA-23, OXA*): 4 mg/L (≈ 17.1 µM)
- MIC ([8]; strain ARC3882, OXA-23, NDM-1, OXA-10*): > 64 mg/L
- MIC ([8]; strain ARC5073, OXA-23, TEM-1, OXA-64, PER-1): 16 mg/L (≈ 68.6 µM)
- MIC ([8]; strain ARC5074, GES*, TEM-1, OXA-51): 64 mg/L (≈ 274 µM)
- MIC ([8]; strain ARC5075, SHV-5, OXA-113): 16 mg/L (≈ 68.6 µM)
- MIC ([8]; strain ARC5076, TEM-1, OXA-23, OXA-66): 32 mg/L (≈ 137 µM)
- MIC ([8]; strain ARC5077, OXA*, OXA-72): 32 mg/L (≈ 137 µM)
- MIC ([8]; strain ARC5079, OXA-72, OXA-65): 32 mg/L (≈ 137 µM)
- MIC ([8]; strain ARC5080, OXA-71, OXA-40): 32 mg/L (≈ 137 µM)
- MIC ([8]; strain ARC5082, OXA-66, OXA-23): 64 mg/L (≈ 274 µM)
- MIC ([8]; strain ARC5083, OXA-66, OXA-23): 16 mg/L (≈ 68.6 µM)
- MIC ([8]; strain ARC5084, IMP-4(B), OXA-58, OXA-65): 4 mg/L (≈ 17.1 µM)
- MIC ([8]; strain ARC5085, OXA*, TEM-1): 32 mg/L (≈ 137 µM)
- MIC ([8]; strain ARC5086, OXA*, TEM-1, OXA-72, OXA-66): 32 mg/L (≈ 137 µM)
- MIC ([8]; strain ARC5087, OXA-66, OXA-23): 32 mg/L (≈ 137 µM)
- MIC ([8]; strain ARC5088, OXA-20, OXA-58, OXA-66): 16 mg/L (≈ 68.6 µM)
- MIC ([8]; strain ARC5089, PER*, TEM-1, OXA-23, OXA-66): 32 mg/L (≈ 137 µM)
- MIC90 [9]: 2 mg/L
